molecular target: full-length human PIKFYVE (Homo sapiens (Human), UniProt Q9Y2I7, L932S/Q1183K/Q995L/S1033A/S696N/T998S); assay: PIKfyve biochemical assay (ADP-Glo Kinase assay, Carna Biosciences); details: class symbols
Description: PIKfyve Biochemical Assay. The biochemical […] inhibition assays were run by Carna Biosciences according to proprietary methodology based on the Promega […] Kinase assay. […] NP_055855.2] was expressed as N-terminal GST-fusion protein (265 kDa) using baculovirus expression system. GST-PIKFYVE was purified by using glutathione sepharose chromatography and used in an ADP-GloTM Kinase assay (Promega). Reactions were set up by adding the test compound solution, substrate solution, ATP solution and kinase solution, each at 4× final concentrations. Reactions were prepared with assay buffer (50 mM MOPS, 1 mM DTT, pH7.2), mixed, and incubated in black 384 well polystyrene plates for 1 hour at room temperature. ADP-Glo^TM reagent was then added for 40 minutes, followed by kinase detection reagent for an additional 40 minutes. The kinase activity was evaluated by detecting relative light units on a luminescence plate reader. […] IC50 values were calculated from concentration vs % inhibition curves by fitting to a four-parameter logistic curve. […] The biochemical […] inhibition assays were run by Carna Biosciences according to proprietary methodology based on the Promega ADP-GloTM Kinase assay. […] GST-PIKFYVE was purified by using glutathione sepharose chromatography and used in an ADP-GIoTM Kinase assay (Promega). Reactions were set up by adding the test compound solution, substrate solution, ATP solution and kinase solution, each at 4× final concentrations. Reactions were prepared with assay buffer (50 mM MOPS, 1 mM DTT, pH7.2), mixed, and incubated in black 384 well polystyrene plates for 1 hour at room temperature. ADP-GIoTM reagent was then added for 40 minutes, followed by kinase detection reagent for an additional 40 minutes. The kinase activity was evaluated by detecting relative light units on a luminescence plate reader. […] IC50 values were calculated from concentration vs % inhibition curves by fitting to a four-parameter logistic curve. […] The same compounds were also tested in both FAB1 and PIKFYVE TDP-43 yeast models.

Sequence of full-length human PIKFYVE (Q9Y2I7 whole entry S696N/L932S/Q995L/T998S/S1033A/Q1183K, the tested form may be a part): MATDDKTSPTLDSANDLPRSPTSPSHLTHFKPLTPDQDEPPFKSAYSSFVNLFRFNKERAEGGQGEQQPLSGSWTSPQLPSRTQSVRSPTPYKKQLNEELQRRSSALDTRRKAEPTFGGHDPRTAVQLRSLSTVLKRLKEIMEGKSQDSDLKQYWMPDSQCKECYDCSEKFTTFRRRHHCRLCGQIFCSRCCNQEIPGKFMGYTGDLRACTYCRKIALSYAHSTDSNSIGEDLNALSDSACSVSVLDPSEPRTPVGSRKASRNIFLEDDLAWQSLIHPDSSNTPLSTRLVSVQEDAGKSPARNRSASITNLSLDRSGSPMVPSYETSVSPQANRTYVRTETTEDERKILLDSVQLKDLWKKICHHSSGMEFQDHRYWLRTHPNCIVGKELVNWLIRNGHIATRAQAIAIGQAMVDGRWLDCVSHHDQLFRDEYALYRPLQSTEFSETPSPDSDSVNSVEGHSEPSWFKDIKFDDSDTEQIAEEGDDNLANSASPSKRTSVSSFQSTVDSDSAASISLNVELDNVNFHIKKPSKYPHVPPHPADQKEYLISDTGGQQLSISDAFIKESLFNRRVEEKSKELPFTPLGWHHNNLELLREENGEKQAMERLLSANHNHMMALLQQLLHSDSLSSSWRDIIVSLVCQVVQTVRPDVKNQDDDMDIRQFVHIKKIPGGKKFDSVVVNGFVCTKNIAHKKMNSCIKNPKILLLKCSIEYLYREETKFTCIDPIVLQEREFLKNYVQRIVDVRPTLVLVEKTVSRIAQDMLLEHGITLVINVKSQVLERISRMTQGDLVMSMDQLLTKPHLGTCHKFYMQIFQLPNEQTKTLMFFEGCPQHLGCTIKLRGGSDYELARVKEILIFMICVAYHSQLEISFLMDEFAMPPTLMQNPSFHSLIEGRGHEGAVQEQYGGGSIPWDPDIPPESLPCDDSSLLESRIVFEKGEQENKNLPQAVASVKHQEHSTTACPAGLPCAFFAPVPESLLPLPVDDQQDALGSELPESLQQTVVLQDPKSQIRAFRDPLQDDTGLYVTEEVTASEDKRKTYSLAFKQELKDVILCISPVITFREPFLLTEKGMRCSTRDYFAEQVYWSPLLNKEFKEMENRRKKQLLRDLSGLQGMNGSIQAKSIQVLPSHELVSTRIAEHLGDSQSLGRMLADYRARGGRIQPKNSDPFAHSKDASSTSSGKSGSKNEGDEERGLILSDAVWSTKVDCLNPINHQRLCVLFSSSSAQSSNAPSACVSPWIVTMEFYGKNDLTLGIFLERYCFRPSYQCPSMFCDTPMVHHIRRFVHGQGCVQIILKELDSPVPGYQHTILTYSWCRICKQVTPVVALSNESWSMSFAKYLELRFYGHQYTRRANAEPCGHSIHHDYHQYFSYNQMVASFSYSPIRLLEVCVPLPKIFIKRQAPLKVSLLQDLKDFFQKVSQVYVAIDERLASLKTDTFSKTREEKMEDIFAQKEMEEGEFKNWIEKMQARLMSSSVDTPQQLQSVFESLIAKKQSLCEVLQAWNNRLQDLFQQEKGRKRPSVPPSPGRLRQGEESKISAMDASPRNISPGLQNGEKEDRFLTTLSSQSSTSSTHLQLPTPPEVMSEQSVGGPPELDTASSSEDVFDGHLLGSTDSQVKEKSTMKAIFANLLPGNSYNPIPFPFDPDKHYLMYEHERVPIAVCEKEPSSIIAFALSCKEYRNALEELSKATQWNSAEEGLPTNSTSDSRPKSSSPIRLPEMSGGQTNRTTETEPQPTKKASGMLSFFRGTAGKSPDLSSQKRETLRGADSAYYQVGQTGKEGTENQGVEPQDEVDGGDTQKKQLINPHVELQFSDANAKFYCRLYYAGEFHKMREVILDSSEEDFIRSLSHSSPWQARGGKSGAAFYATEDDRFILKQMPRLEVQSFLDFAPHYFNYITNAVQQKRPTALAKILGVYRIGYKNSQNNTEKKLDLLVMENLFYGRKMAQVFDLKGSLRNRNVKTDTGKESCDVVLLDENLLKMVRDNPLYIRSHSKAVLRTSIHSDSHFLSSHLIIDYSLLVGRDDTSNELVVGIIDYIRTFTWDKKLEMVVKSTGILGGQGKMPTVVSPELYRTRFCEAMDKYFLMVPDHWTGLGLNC

How did the IC50 turn out when `CC(C)(C)OC(=O)N1CCCC(c2cn(-c3cc(N4CCOCC4)n4nc(-c5ccncc5)cc4n3)cn2)C1` (stereo not drawn) [Compound 15, tert-butyl 3-(1-(7-morpholino-2-(pyridin-4-yl)pyrazolo[1,5-a]pyrimidin-5-yl)-1H-imidazol-4-yl)piperidine-1-carboxylate] was run?
Its IC50 is 1 to 10 µM.

With `c1cncc(-c2ccn(-c3cc(N4CCOCC4)n4nc(C5CCCO5)cc4n3)n2)c1` (stereo not drawn) [Compound 92, 4-(5-(3-(pyridin-3-yl)-1H-pyrazol-1-yl)-2-(tetrahydrofuran-2-yl)pyrazolo[1,5-a]pyrimidin-7-yl)morpholine] as the compound, how does the IC50 read?
The IC50 was 1 to 10 µM.

How did the IC50 turn out when `c1ccc(C2CN(c3cc(N4CCOCC4)n4nc(-c5ccncc5)cc4n3)CCN2)cc1` (stereo not drawn) [Compound 35, 4-(5-(3-phenylpiperazin-1-yl)-2-(pyridin-4-yl)pyrazolo[1,5-a]pyrimidin-7-yl)morpholine] was run?
The IC50 was 1 to 10 µM.

With `Oc1cc(-c2cc(N3CCOCC3)n3nc(-c4ccncc4)cc3n2)nn1-c1cccnc1` [Compound 58, 3-(7-morpholino-2-(pyridin-4-yl)pyrazolo[1,5-a]pyrimidin-5-yl)-1-(pyridin-3-yl)-1H-pyrazol-5-ol] as the compound, how does the IC50 read?
Its IC50 is 0.01 to 0.1 µM.

How did the IC50 turn out when `Oc1cc(C2CCCCC2)nn1-c1cc(N2CCOCC2)n2nc(-c3ccncc3)cc2n1` [Compound 49, 3-cyclohexyl-1-(7-morpholino-2-(pyridin-4-yl)pyrazolo[1,5-a]pyrimidin-5-yl)-1H-pyrazol-5-ol] was run?
The IC50 was 0.1 to 1 µM.

Which IC50 does the source give for `Cc1ccccc1-c1cc(O)n(-c2cc(N3CCOCC3)n3nc(-c4ccncc4)cc3n2)n1` [Compound 46, 1-(7-morpholino-2-(pyridin-4-yl)pyrazolo[1,5-a]pyrimidin-5-yl)-3-(o-tolyl)-1H-pyrazol-5-ol] here?
The IC50 was 0.01 to 0.1 µM.

How did the IC50 turn out when `Fc1cccc(-c2nccc(-c3cc(N4CCOCC4)n4nc(-c5ccncc5)cc4n3)n2)c1` [Compound 139, 4-(5-(2-(3-fluorophenyl)pyrimidin-4-yl)-2-(pyridin-4-yl)pyrazolo[1,5-a]pyrimidin-7-yl)morpholine] was run?
Its IC50 is 0.1 to 1 µM.

With `CN1CCN(c2cc(N3CCOCC3)n3nc(-c4ccncc4)cc3n2)C(Cc2ccccc2)C1=O` (stereo not drawn) [Compound 28, 3-benzyl-1-methyl-4-(7-morpholino-2-(pyridin-4-yl)pyrazolo[1,5-a]pyrimidin-5-yl)piperazin-2-one] as the compound, how does the IC50 read?
Its IC50 is 1 to 10 µM.

With `c1cc(-c2cc3nc(-n4ccc(C5CCNCC5)n4)cc(N4CCOCC4)n3n2)ccn1` [Compound 62, 4-(5-(3-(piperidin-4-yl)-1H-pyrazol-1-yl)-2-(pyridin-4-yl)pyrazolo[1,5-a]pyrimidin-7-yl)morpholine] as the compound, how does the IC50 read?
Its IC50 is 0.1 to 1 µM.

For `Cc1cccc(CCOc2cc(N3CCOCC3)n3nc(-c4ccncc4)cc3n2)c1` [Compound 2, 4-(5-(3-methylphenethoxy)-2-(pyridin-4-yl)pyrazolo[1,5-a]pyrimidin-7-yl)morpholine], which IC50 is on record?
The IC50 was 1 to 10 µM.

With `c1ccc(-c2cc(N3CCOCC3)n3nc(-c4ccncc4)cc3n2)nc1` [Compound 132] as the compound, how does the IC50 read?
Its IC50 is 0.1 to 1 µM.

For `CN1CCC(c2ccn(-c3cc(N4CCOCC4)n4nc(-c5ccncc5)cc4n3)n2)CC1` [Compound 63, 4-(5-(3-(1-methylpiperidin-4-yl)-1H-pyrazol-1-yl)-2-(pyridin-4-yl)pyrazolo[1,5-a]pyrimidin-7-yl)morpholine], which IC50 is on record?
The IC50 was 0.1 to 1 µM.

Which IC50 does the source give for `O=C1COC(c2ccccc2)CN1c1cc(N2CCOCC2)n2nc(-c3ccncc3)cc2n1` (stereo not drawn) [Compound 135, 4-(7-morpholino-2-(pyridin-4-yl)pyrazolo[1,5-a]pyrimidin-5-yl)-6-phenylmorpholin-3-one] here?
Its IC50 is 1 to 10 µM.

`c1ccc(-c2ccn(-c3cc(N4CCOCC4)n4nc(C5CCCO5)cc4n3)n2)cc1` (stereo not drawn) [Compound 90, 4-(5-(3-phenyl-1H-pyrazol-1-yl)-2-(tetrahydrofuran-2-yl)pyrazolo[1,5-a]pyrimidin-7-yl)morpholine] was tested. Which IC50 did it give?
Its IC50 is 0.01 to 0.1 µM.

Which IC50 does the source give for `c1ccc(C2CCCN(c3cc(N4CCOCC4)n4nc(-c5ccncc5)cc4n3)C2)cc1` (stereo not drawn) [Compound 34, 4-(5-(3-phenylpiperidin-1-yl)-2-(pyridin-4-yl)pyrazolo[1,5-a]pyrimidin-7-yl)morpholine] here?
The IC50 was 1 to 10 µM.

Which IC50 does the source give for `OCC1(c2ccn(-c3cc(N4CCOCC4)n4nc(-c5ccncc5)cc4n3)n2)CC1` [Compound 82, (1-(1-(7-morpholino-2-(pyridin-4-yl)pyrazolo[1,5-a]pyrimidin-5-yl)-1H-pyrazol-3-yl)cyclopropyl)methanol] here?
The IC50 was 0.1 to 1 µM.

`CC1(CCc2ccn(-c3cc(N4CCOCC4)n4nc(-c5ccncc5)cc4n3)n2)CC1` [Compound 84, 4-(5-(3-(2-(1-methylcyclopropyl)ethyl)-1H-pyrazol-1-yl)-2-(pyridin-4-yl)pyrazolo[1,5-a]pyrimidin-7-yl)morpholine] was tested. Which IC50 did it give?
Its IC50 is 1 to 10 µM.

How did the IC50 turn out when `O=C1C(c2ccccc2)CCCN1c1cc(N2CCOCC2)n2nc(-c3ccncc3)cc2n1` (stereo not drawn) [Compound 24, 1-(7-morpholino-2-(pyridin-4-yl)pyrazolo[1,5-a]pyrimidin-5-yl)-3-phenylpiperidin-2-one] was run?
The IC50 was 1 to 10 µM.

`c1ccc(N2CC(c3cc(N4CCOCC4)n4nc(-c5ccncc5)cc4n3)C2)cc1` [Compound 121, 4-(5-(1-phenylazetidin-3-yl)-2-(pyridin-4-yl)pyrazolo[1,5-a]pyrimidin-7-yl)morpholine] was tested. Which IC50 did it give?
Its IC50 is over 10 µM.

How did the IC50 turn out when `c1cc(-c2cc3nc(-n4ccc(C5CCCNC5)n4)cc(N4CCOCC4)n3n2)ccn1` (single isomer, unassigned) [Compound 75, 4-(5-(3-(piperidin-3-yl)-1H-pyrazol-1-yl)-2-(pyridin-4-yl)pyrazolo[1,5-a]pyrimidin-7-yl)morpholine] was run?
Its IC50 is 0.1 to 1 µM.

With `Oc1c2c(nn1-c1cc(N3CCOCC3)n3nc(-c4ccncc4)cc3n1)CCCC2` [Compound 55, 2-(7-morpholino-2-(pyridin-4-yl)pyrazolo[1,5-a]pyrimidin-5-yl)-4,5,6,7-tetrahydro-2H-indazol-3-ol] as the compound, how does the IC50 read?
The IC50 was 0.1 to 1 µM.

How did the IC50 turn out when `CC(C)(C)OC(=O)NC(=N)c1cc(N2CCOCC2)n2nc(-c3ccncc3)cc2n1` [Compound 115, tert-butyl imino(7-morpholino-2-(pyridin-4-yl)pyrazolo[1,5-a]pyrimidin-5-yl)methylcarbamate] was run?
The IC50 was 0.1 to 1 µM.

How did the IC50 turn out when `c1cc(-c2cc3nc(-n4ccc(-c5cncnc5)n4)cc(N4CCOCC4)n3n2)ccn1` [Compound 72, 4-(2-(pyridin-4-yl)-5-(3-(pyrimidin-5-yl)-1H-pyrazol-1-yl)pyrazolo[1,5-a]pyrimidin-7-yl)morpholine] was run?
Its IC50 is 0.1 to 1 µM.

How did the IC50 turn out when `c1ccc(-c2ccn(-c3cc(N4CCOCC4)n4nc(-c5ccncc5)cc4n3)n2)cc1` [Compound 148] was run?
The IC50 was 0.01 to 0.1 µM.

With `c1cc(-c2cc3nc(-n4cc5c(n4)CCCC5)cc(N4CCOCC4)n3n2)ccn1` [Compound 85, 4-(2-(pyridin-4-yl)-5-(4,5,6,7-tetrahydro-2H-indazol-2-yl)pyrazolo[1,5-a]pyrimidin-7-yl)morpholine] as the compound, how does the IC50 read?
Its IC50 is 0.1 to 1 µM.

Which IC50 does the source give for `COCCc1ccn(-c2cc(N3CCOCC3)n3nc(-c4ccncc4)cc3n2)n1` [Compound 81, 4-(5-(3-(2-methoxyethyl)-1H-pyrazol-1-yl)-2-(pyridin-4-yl)pyrazolo[1,5-a]pyrimidin-7-yl)morpholine] here?
Its IC50 is 0.1 to 1 µM.

Which IC50 does the source give for `c1ccc(Oc2ncccc2-c2cc(N3CCOCC3)n3nc(-c4ccncc4)cc3n2)cc1` [Compound 42, 4-(5-(2-phenoxypyridin-3-yl)-2-(pyridin-4-yl)pyrazolo[1,5-a]pyrimidin-7-yl)morpholine] here?
The IC50 was 0.1 to 1 µM.

For `c1cc(-c2cc3nc(-n4ccc(C5CNC5)n4)cc(N4CCOCC4)n3n2)ccn1` [Compound 73, 4-(5-(3-(Azetidin-3-yl)-1H-pyrazol-1-yl)-2-(pyridin-4-yl)pyrazolo[1,5-a]pyrimidin-7-yl)morpholine], which IC50 is on record?
Its IC50 is 0.1 to 1 µM.

How did the IC50 turn out when `O=c1c(Br)c(Br)cnn1-c1cc(N2CCOCC2)n2nc(-c3ccncc3)cc2n1` [Compound 4, 4,5-dibromo-2-(7-morpholino-2-(pyridin-4-yl)pyrazolo[1,5-a]pyrimidin-5-yl)pyridazin-3(2H)-one] was run?
The IC50 was 1 to 10 µM.

How did the IC50 turn out when `Fc1cccc(-c2ccn(-c3cc(N4CCOCC4)n4nc(C5CCCO5)cc4n3)n2)c1` (stereo not drawn) [Compound 94, 4-(5-(3-(3-fluorophenyl)-1H-pyrazol-1-yl)-2-(tetrahydrofuran-2-yl)pyrazolo[1,5-a]pyrimidin-7-yl)morpholine] was run?
The IC50 was 0.1 to 1 µM.

Which IC50 does the source give for `c1ccc(-c2ccn(-c3cc(N4CCOCC4)n4nc(-c5ccncc5)cc4n3)n2)nc1` [Compound 70, 4-(5-(3-(pyridin-2-yl)-1H-pyrazol-1-yl)-2-(pyridin-4-yl)pyrazolo[1,5-a]pyrimidin-7-yl)morpholine] here?
Its IC50 is 0.1 to 1 µM.

`COCC1(c2ccn(-c3cc(N4CCOCC4)n4nc(-c5ccncc5)cc4n3)n2)CC1` [Compound 83, 4-(5-(3-(1-(methoxymethyl)cyclopropyl)-1H-pyrazol-1-yl)-2-(pyridin-4-yl)pyrazolo[1,5-a]pyrimidin-7-yl)morpholine] was tested. Which IC50 did it give?
Its IC50 is 0.1 to 1 µM.

Which IC50 does the source give for `CC(C)(C)OC(=O)N1CCN(c2cc(N3CCOCC3)n3nc(-c4ccncc4)cc3n2)C(Cc2ccccc2)C1` (stereo not drawn) [Compound 116, tert-butyl 3-benzyl-4-(7-morpholino-2-(pyridin-4-yl)pyrazolo[1,5-a]pyrimidin-5-yl)piperazine-1-carboxylate] here?
Its IC50 is 1 to 10 µM.
